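How tested: cells in 96-well plates exposed to compound for 48 hours at five concentrations. GI50 marks 50% less growth.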 Calls of active or inactive are those of the source. Rule as the data show it: active = GI50 up to about 1.1 µM and inactive = higher.
Tests used:
Test in all cases: NCI-60 cell line screen, 48 h
[1] = tested on: HT-29
[2] = tested on: HCT-15
[3] = tested on: Hs-578T
[4] = tested on: HCC 2998
[5] = tested on: MDA-MB-435
[6] = tested on: K562
[7] = tested on: SK-MEL-5
[8] = tested on: SK-MEL-2
[9] = tested on: HOP-62
[10] = tested on: SF-268
[11] = tested on: NCI-H522
[12] = tested on: COLO 205
[13] = tested on: A498
[14] = tested on: HCT-116
[15] = tested on: HOP-92
[16] = tested on: TK-10
[17] = tested on: NCI/ADR-RES
[18] = tested on: OVCAR-4
[19] = tested on: MDA-MB-231
[20] = tested on: SF-295
[21] = tested on: SF-539
[22] = tested on: BT-549
[23] = tested on: EKVX
[24] = tested on: OVCAR-3
[25] = tested on: SK-MEL-28
[26] = tested on: M14
[27] = tested on: UO-31
[28] = tested on: CCRF-CEM
[29] = tested on: MOLT-4
[30] = tested on: LOX IMVI
[31] = tested on: DU-145
[32] = tested on: SR
[33] = tested on: SNB-75
[34] = tested on: SK-OV-3
[35] = tested on: UACC-257
[36] = tested on: A549
[37] = tested on: KM12
[38] = tested on: HL-60
[39] = tested on: NCI-H226
[40] = tested on: MDA-N
[41] = tested on: U-251
[42] = tested on: SNB-19
[43] = tested on: OVCAR-5
[44] = tested on: UACC-62
[45] = tested on: MCF7
[46] = tested on: 786-0
[47] = tested on: RXF 393
[48] = tested on: ACHN
[49] = tested on: RPMI-8226
[50] = tested on: PC-3
[51] = tested on: CAKI-1
[52] = tested on: SW-620
[53] = tested on: OVCAR-8
[54] = tested on: T47D
[55] = tested on: NCI-H23
[56] = tested on: NCI-H460
[57] = tested on: SN12C
[58] = tested on: Malme-3M
[59] = tested on: IGROV-1

Q: With O=C1/C(=C/c2ccc(O)cc2)CCc2ccc([N+](=O)[O-])cc21 as the compound, how does the GI50 [1] read?
A: > 100 µM (inactive)

Q: And the GI50 [2]?
A: > 100 µM

Q: What about the GI50 [3] of the same compound?
A: 35.9 µM (inactive)

Q: What about the GI50 [4] of the same compound?
A: > 100 µM (inactive)

Q: What about the GI50 [5] of the same compound?
A: > 100 µM (inactive)

Q: And the GI50 [6]?
A: > 100 µM (inactive)

Q: What about the GI50 [7] of the same compound?
A: > 81.8 µM (inactive)

Q: And the GI50 [8]?
A: 66.5 µM (inactive)

Q: And the GI50 [9]?
A: 73.5 µM (inactive)

Q: What about the GI50 [10] of the same compound?
A: > 61.7 µM (inactive)

Q: And the GI50 [11]?
A: 2.65 µM (inactive)

Q: What about the GI50 [12] of the same compound?
A: > 100 µM (inactive)

Q: What about the GI50 [13] of the same compound?
A: 34.6 µM (inactive)

Q: And the GI50 [14]?
A: 75.5 µM (inactive)

Q: What about the GI50 [15] of the same compound?
A: 29.1 µM (inactive)

Q: And the GI50 [16]?
A: 45.2 µM (inactive)

Q: What about the GI50 [17] of the same compound?
A: 73.5 µM (inactive)

Q: What about the GI50 [18] of the same compound?
A: > 90.6 µM (inactive)

Q: What about the GI50 [19] of the same compound?
A: > 100 µM (inactive)

Q: What about the GI50 [20] of the same compound?
A: 63.1 µM (inactive)

Q: What about the GI50 [21] of the same compound?
A: > 90.6 µM (inactive)

Q: And the GI50 [22]?
A: 31.3 µM (inactive)

Q: What about the GI50 [23] of the same compound?
A: > 89.5 µM (inactive)

Q: What about the GI50 [24] of the same compound?
A: > 78.2 µM (inactive)

Q: And the GI50 [25]?
A: > 100 µM (inactive)

Q: What about the GI50 [26] of the same compound?
A: > 100 µM (inactive)

Q: What about the GI50 [27] of the same compound?
A: 23 µM (inactive)

Q: What about the GI50 [28] of the same compound?
A: 0.419 µM (active)

Q: And the GI50 [29]?
A: 3.63 µM (inactive)

Q: What about the GI50 [30] of the same compound?
A: > 100 µM (inactive)

Q: What about the GI50 [31] of the same compound?
A: 55.3 µM (inactive)

Q: And the GI50 [32]?
A: 1.63 µM (inactive)

Q: What about the GI50 [33] of the same compound?
A: 53.2 µM (inactive)

Q: What about the GI50 [34] of the same compound?
A: > 84.7 µM (inactive)

Q: What about the GI50 [35] of the same compound?
A: 97.7 µM (inactive)

Q: What about the GI50 [36] of the same compound?
A: 45 µM (inactive)

Q: What about the GI50 [37] of the same compound?
A: > 76 µM (inactive)

Q: And the GI50 [38]?
A: 5.5 µM (inactive)

Q: What about the GI50 [39] of the same compound?
A: 28.7 µM (inactive)

Q: And the GI50 [40]?
A: > 100 µM (inactive)

Q: What about the GI50 [41] of the same compound?
A: 60.4 µM (inactive)

Q: What about the GI50 [42] of the same compound?
A: 39.1 µM (inactive)

Q: And the GI50 [43]?
A: > 51.5 µM (inactive)

Q: And the GI50 [44]?
A: > 74.3 µM (inactive)

Q: What about the GI50 [45] of the same compound?
A: > 33.3 µM (inactive)

Q: What about the GI50 [46] of the same compound?
A: > 80.5 µM (inactive)

Q: And the GI50 [47]?
A: 33.3 µM (inactive)

Q: What about the GI50 [48] of the same compound?
A: > 81.3 µM (inactive)

Q: What about the GI50 [49] of the same compound?
A: 2.07 µM (inactive)

Q: And the GI50 [50]?
A: > 100 µM (inactive)

Q: What about the GI50 [51] of the same compound?
A: > 82.6 µM (inactive)

Q: What about the GI50 [52] of the same compound?
A: > 100 µM (inactive)

Q: What about the GI50 [53] of the same compound?
A: > 100 µM (inactive)

Q: And the GI50 [54]?
A: 68.7 µM (inactive)

Q: And the GI50 [55]?
A: 36.1 µM (inactive)

Q: What about the GI50 [56] of the same compound?
A: 45.9 µM (inactive)

Q: And the GI50 [57]?
A: > 100 µM (inactive)

Q: What about the GI50 [58] of the same compound?
A: 98.2 µM (inactive)

Q: And the GI50 [59]?
A: 61.2 µM (inactive)

Q: With CCn1c2ccc(C(=O)CCCN(C)C)cc2c2cc(C(=O)CCCN(C)C)ccc21 as the compound, how does the GI50 [1] read?
A: 0.509 µM (active)

Q: And the GI50 [2]?
A: 1.27 µM

Q: And the GI50 [3]?
A: 2.32 µM (inactive)

Q: What about the GI50 [4] of the same compound?
A: 1.69 µM (inactive)

Q: And the GI50 [5]?
A: 1.27 µM (inactive)

Q: And the GI50 [6]?
A: 2.05 µM (inactive)

Q: And the GI50 [7]?
A: 4.69 µM (inactive)

Q: What about the GI50 [8] of the same compound?
A: 2.25 µM (inactive)

Q: What about the GI50 [9] of the same compound?
A: 0.701 µM (active)

Q: What about the GI50 [10] of the same compound?
A: 1.75 µM (inactive)

Q: And the GI50 [11]?
A: 3.04 µM (inactive)

Q: What about the GI50 [12] of the same compound?
A: 1.06 µM (active)

Q: What about the GI50 [13] of the same compound?
A: 1.32 µM (inactive)

Q: What about the GI50 [14] of the same compound?
A: 0.593 µM (active)

Q: And the GI50 [15]?
A: 3.03 µM (inactive)

Q: And the GI50 [16]?
A: 1.98 µM (inactive)

Q: And the GI50 [17]?
A: 4.93 µM (inactive)

Q: What about the GI50 [18] of the same compound?
A: 1.18 µM (inactive)

Q: What about the GI50 [19] of the same compound?
A: 0.851 µM (active)

Q: What about the GI50 [20] of the same compound?
A: 3.64 µM (inactive)

Q: What about the GI50 [21] of the same compound?
A: 0.805 µM (active)

Q: What about the GI50 [22] of the same compound?
A: 3.38 µM (inactive)

Q: And the GI50 [23]?
A: 1.79 µM (inactive)

Q: What about the GI50 [24] of the same compound?
A: 1.27 µM (inactive)

Q: And the GI50 [25]?
A: 5.66 µM (inactive)

Q: What about the GI50 [26] of the same compound?
A: 1.95 µM (inactive)

Q: And the GI50 [27]?
A: 3.48 µM (inactive)

Q: What about the GI50 [28] of the same compound?
A: 0.395 µM (active)

Q: What about the GI50 [29] of the same compound?
A: 0.256 µM (active)

Q: And the GI50 [30]?
A: 1.12 µM (active)

Q: What about the GI50 [31] of the same compound?
A: 2.52 µM (inactive)

Q: What about the GI50 [32] of the same compound?
A: 1.13 µM (inactive)

Q: And the GI50 [33]?
A: 2.97 µM (inactive)

Q: What about the GI50 [34] of the same compound?
A: 5.79 µM (inactive)

Q: And the GI50 [35]?
A: 3.44 µM (inactive)

Q: What about the GI50 [36] of the same compound?
A: 0.867 µM (active)

Q: What about the GI50 [37] of the same compound?
A: 1.18 µM (inactive)

Q: What about the GI50 [38] of the same compound?
A: 1.75 µM (inactive)

Q: What about the GI50 [39] of the same compound?
A: 2.74 µM (inactive)

Q: And the GI50 [40]?
A: 2.05 µM (inactive)

Q: And the GI50 [41]?
A: 2.24 µM (inactive)

Q: What about the GI50 [42] of the same compound?
A: 1.6 µM (inactive)

Q: What about the GI50 [43] of the same compound?
A: 1.79 µM (inactive)

Q: What about the GI50 [44] of the same compound?
A: 7.59 µM (inactive)

Q: And the GI50 [45]?
A: 0.659 µM (active)

Q: And the GI50 [46]?
A: 0.243 µM (active)

Q: And the GI50 [47]?
A: 1.68 µM (inactive)

Q: And the GI50 [48]?
A: 0.759 µM (active)

Q: What about the GI50 [49] of the same compound?
A: 1.77 µM (inactive)

Q: And the GI50 [50]?
A: 1.3 µM (inactive)

Q: And the GI50 [51]?
A: 2.55 µM (inactive)

Q: What about the GI50 [52] of the same compound?
A: 0.53 µM (active)

Q: And the GI50 [53]?
A: 0.533 µM (active)

Q: What about the GI50 [54] of the same compound?
A: 10.2 µM (inactive)

Q: And the GI50 [55]?
A: 1.61 µM (inactive)

Q: And the GI50 [56]?
A: 0.421 µM (active)

Q: What about the GI50 [57] of the same compound?
A: 0.946 µM (active)

Q: And the GI50 [58]?
A: 2.81 µM (inactive)

Q: What about the GI50 [59] of the same compound?
A: 0.889 µM (active)
